Source: patent publication US10239838B2, “Heteroaryl orexin receptor antagonists” (Merck Sharp & Dohme Corp., priority 2014, dated 2019)

Columns and labels:
[1] = molecular target: human orexin-2 receptor (Homo sapiens (Human), UniProt O43614); assay: FLIPR Ca2+ Flux Assay, orexin-2 receptor; type: cell-based; conditions: CHO cells expressing the human orexin-2 receptor; agonist 70 pM Ala-6,12 orexin-A; read-out: hOX2R FLIPR IC50
Description: In a typical experiment the OX1 and OX2 receptor antagonistic activity of the compounds of the present invention was determined in accordance with the following experimental method. For intracellular calcium measurements, Chinese hamster ovary (CHO) cells expressing the rat orexin-1 receptor or the human orexin-2 receptor, are grown in Iscove's modified DMEM containing 2 mM L-glutamine, […], 1% hypoxanthine-thymidine supplement, 100 U/ml penicillin, 100 μg/ml streptomycin and 10% heat-inactivated fetal calf serum (FCS). The cells are seeded at 20,000 cells/well into Becton-Dickinson black 384-well clear bottom sterile plates coated with poly-D-lysine. All reagents were from GIBCO-Invitrogen Corp. The seeded plates are incubated overnight at 37° C. and 5% CO2. Ala-6,12 human orexin-A as the agonist is prepared as a 1 mM stock solution in 1% bovine serum albumin (BSA) and diluted in assay buffer (HBSS containing 20 mM HEPES, 0.1% BSA and 2.5 mM probenecid, pH7.4) for use in the assay at a final concentration of 70 pM. Test compounds are prepared as 10 mM stock solution in DMSO, then diluted in 384-well plates, first in DMSO, then assay buffer. On the day of the assay, cells are washed 3 times with 100 μl assay buffer and then incubated for 60 min (37° C., 5% CO2) in 60 μl assay buffer containing 1 μM Fluo-4 AM ester, 0.02% pluronic acid, and 1% BSA. The dye loading solution is then aspirated and cells are washed 3 times with 100 μl assay buffer. 30 μl of that same buffer is left in each well. Within the Fluorescent Imaging Plate Reader (FLIPR, Molecular Devices), test compounds are added to the plate in a volume of 25 μl, incubated for 5 min and finally 25 μl of agonist is added. Fluorescence is measured for each well at 1 second intervals for 5 minutes and the height of each fluorescence peak is compared to the height of the fluorescence peak induced by 70 pM Ala-6,12 orexin-A with buffer in place of antagonist. […] Alternatively, compound potency can be assessed by a radioligand binding assay (described in Bergman et. al. Bioorg. Med. Chem. Lett. 2008, 18, 1425-1430) in which the inhibition constant (Ki) is determined in membranes prepared from CHO cells expressing either the OX1 or OX2 receptor. The intrinsic orexin receptor antagonist activity of a compound which may be used in the present invention may be determined by these assays.

[2] = molecular target: hOX1R (Homo sapiens, UniProt O43613); assay: FLIPR Ca2+ Flux Assay, orexin-1 receptor; type: cell-based; conditions: CHO cells expressing orexin-1 receptor; agonist 70 pM Ala-6,12 orexin-A

Chain of human orexin-2 receptor (O43614 whole entry): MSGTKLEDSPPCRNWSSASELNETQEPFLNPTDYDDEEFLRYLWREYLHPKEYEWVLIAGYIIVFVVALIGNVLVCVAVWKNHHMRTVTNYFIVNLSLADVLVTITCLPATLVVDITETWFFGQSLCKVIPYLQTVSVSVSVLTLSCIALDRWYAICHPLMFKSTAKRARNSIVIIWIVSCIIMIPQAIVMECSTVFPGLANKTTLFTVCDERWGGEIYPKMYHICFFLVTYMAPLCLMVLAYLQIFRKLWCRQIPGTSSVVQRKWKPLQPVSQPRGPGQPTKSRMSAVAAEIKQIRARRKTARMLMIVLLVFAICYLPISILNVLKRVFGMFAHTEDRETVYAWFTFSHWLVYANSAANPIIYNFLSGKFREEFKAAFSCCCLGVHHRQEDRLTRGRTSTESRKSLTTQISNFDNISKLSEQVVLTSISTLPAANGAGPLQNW

SMILES	IC50 [1] [nM]	IC50 [2] [nM]
CCN(CCc1cccc(C(C)(C)O)n1)C(=O)c1ccccc1-c1ncccn1 [Example 32, N-Ethyl-N-(2-(6-(2-hydroxypropan-2-yl)pyridin-2-yl)ethyl)-2-(pyrimidin-2-yl)benzamide]	16	7360
CCN(CCc1cccc(C(C)(C)O)n1)C(=O)c1ccccc1-n1ncnn1 [Example 29, N-ethyl-N-(2-(6-(2-hydroxypropan-2-yl)pyridin-2-yl)ethyl)-2-(2H-tetrazol-2-yl)benzamide]	146	> 10000
CCN(CCc1ccc(C(C)(C)O)cn1)C(=O)c1ccccc1C1CCC1 [Example 62, 2-cyclobutyl-N-ethyl-N-{2-[5-(1-hydroxy-1-methylethyl)pyridin-2-yl]ethyl}benzamide]	62	> 10000
CCN(CCc1cccc(C(C)(C)O)n1)C(=O)c1ccccc1OCC(F)(F)F [Example 17, N-ethyl-N-(2-(6-(2-hydroxypropan-2-yl)pyridin-2-yl)ethyl)-2-(2,2,2-trifluoroethoxy)benzamide]	261	> 10000
CCN(CCc1cccc(C(C)(C)O)n1)C(=O)c1ccccc1OC(F)(F)F [Example 8, N-ethyl-N-{2-[6-(1-hydroxy-1-methylethyl)pyridin-2-yl]ethyl}-2-(trifluoromethoxy)benzamide]	32	> 10000
CCN(CCc1cccc(C(C)(C)O)n1)C(=O)c1ccccc1C1CC1(F)F (stereo not shown) [Example 31, 2-(2,2-difluorocyclopropyl)-N-ethyl-N-(2-(6-(2-hydroxypropan-2-yl)pyridin-2-yl)ethyl)benzamide]	14	9040
CCN(CCc1ccc(C(C)(C)O)cn1)C(=O)c1cccnc1-n1cccn1 [Example 49, N-Ethyl-N-{2-[5-(1-hydroxy-1-methylethyl)pyridin-2-yl]ethyl}-2-(1H-pyrazol-1-yl)pyridine-3-carboxamide]	252	> 10000
CCN(CCc1ccc(C(C)(C)O)cn1)C(=O)c1ccccc1-n1ncnn1 [Example 55, N-ethyl-N-{2-[5-(1-hydroxy-1-methylethyl)pyridin-2-yl]ethyl}-2-(2H-tetrazol-2-yl)benzamide]	388	> 10000
CCN(CCc1cccc(C(C)(C)O)n1)C(=O)c1cccnc1OCC(F)(F)F [Example 10, N-ethyl-N-{2-[6-(1-hydroxy-1-methylethyl)pyridin-2-yl]ethyl}-2-(2,2,2-trifluoroethoxy)pyridine-3-carboxamide]	69	> 10000
CCN(CCc1cc(C)c(C(C)(C)O)cn1)C(=O)c1ccccc1-n1nccn1 [Example 47, N-Ethyl-N-(2-(5-(2-hydroxypropan-2-yl)-4-methylpyridin-2-yl)ethyl)-2-(2H-1,2,3-triazol-2-yl)benzamide]	16	1560
CCN(CCc1cccc(C(C)(C)O)n1)C(=O)c1ccc(F)cc1-n1nccn1 [Example 13, N-ethyl-4-fluoro-N-{2-[6-(1-hydroxy-1-methylethyl)pyridin-2-yl]ethyl}-2-(2H-1,2,3-triazol-2-yl)benzamide]	8	> 10000
CCN(CCc1cccc(C(C)(C)O)n1)C(=O)c1ccccc1CC(F)F [Example 23, 2-(2,2-difluoroethyl)-N-ethyl-N-(2-(6-(2-hydroxypropan-2-yl)pyridin-2-yl)ethyl)benzamide]	142	> 10000
CCN(CCc1ccnc(C(C)(C)O)c1)C(=O)c1ccccc1-n1nccn1 [Example 37, N-Ethyl-N-{2-[2-(1-hydroxy-1-methylethyl)pyridin-4-yl]ethyl}-2-(2H-1,2,3-triazol-2-yl)benzamide]	124	> 10000
CCOc1ccccc1C(=O)N(CC)CCc1ccc(C(C)(C)O)cn1 [Example 57, 2-ethoxy-N-ethyl-N-{2-[5-(1-hydroxy-1-methylethyl)pyridin-2-yl]ethyl}benzamide]	547	> 10000
CCN(CCc1cccc(C(C)(C)O)n1)C(=O)c1ccccc1OCC(F)F [Example 20, 2-(2,2-difluoroethoxy)-N-ethyl-N-(2-(6-(2-hydroxypropan-2-yl)pyridin-2-yl)ethyl)benzamide]	136	> 10000
CCOc1ccccc1C(=O)N(CC)CCc1cccc(C(C)(C)O)n1 [Example 11, 2-ethoxy-N-ethyl-N-{2-[6-(1-hydroxy-1-methylethyl)pyridin-2-yl]ethyl}benzamide]	76	> 10000
CCN(CCc1cccc(C(C)(C)O)n1)C(=O)c1cccnc1-n1cccn1 [Example 24, N-ethyl-N-(2-(6-(2-hydroxypropan-2-yl)pyridin-2-yl)ethyl)-2-(1H-pyrazol-1-yl)nicotinamide]	36	> 10000
CCN(CCc1ccc(C(C)(C)O)cn1)C(=O)c1ccccc1N1CCCC1 [Example 51, N-ethyl-N-{2-[5-(1-hydroxy-1-methylethyl)pyridin-2-yl]ethyl}-2-pyrrolidin-1-ylbenzamide]	76	> 10000
CCN(CCc1cccc(C(C)(C)O)n1)C(=O)c1ncccc1-c1ccccc1 [Example 26, N-ethyl-N-(2-(6-(2-hydroxypropan-2-yl)pyridin-2-yl)ethyl)-3-phenylpicolinamide]	452	> 10000
CCN(CCc1cccc(C(C)(C)O)n1)C(=O)c1cccnc1-c1ccccc1 [Example 14, N-ethyl-N-{2-[6-(1-hydroxy-1-methylethyl)pyridin-2-yl]ethyl}-2-phenylpyridine-3-carboxamide]	103	> 10000
CCN(CCc1ncc(C(C)(C)O)cn1)C(=O)c1ccccc1-n1nccn1 [Example 41, N-Ethyl-N-(2-(5-(2-hydroxypropan-2-yl)pyrimidin-2-yl)ethyl)-2-(2H-1,2,3-triazol-2-yl)benzamide]	86	3230
CCCc1ccccc1C(=O)N(CC)CCc1cccc(C(C)(C)O)n1 [Example 16, N-ethyl-N-(2-(6-(2-hydroxypropan-2-yl)pyridin-2-yl)ethyl)-2-propylbenzamide]	104	> 10000
CCN(CCc1ccc(C(C)(C)O)cn1)C(=O)c1ccccc1-n1cccn1 [Example 53, N-ethyl-N-{2-[5-(1-hydroxy-1-methylethyl)pyridin-2-yl]ethyl}-2-(1H-pyrazol-1-yl)benzamide]	183	> 10000
